Laboratory results published in patent publication US8389541B2, “Inhibitors of protein tyrosine kinase activity” (MethylGene Inc., priority 2007, dated 2013).
Read-outs that look alike come from different tables or passages of the source.

Key:
[1] = tested on: U87MG tumor; assay: In vivo solid tumor disease model, U87MG; set-up: species or system mice; details: Mus musculus, U-87 MG, po, 20 mg/kg orally daily, read-out: Tumor Growth Inhibition (%)
Text: (§1) This test measures the capacity of compounds to inhibit solid tumor growth.
(§2) Tumor xenografts are established in the flank of female athymic CD1 mice (Charles River Inc.), by subcutaneous injection of 1×106 U87, A431 or SKLMS cells/mouse. Once established, tumors are then serially passaged s.c. in nude mice hosts. Tumor fragments from these host animals are used in subsequent compound evaluation experiments. For compound evaluation experiments female nude mice weighing approximately 20 g are implanted s.c. by surgical implantation with tumor fragments of ˜30 mg from donor tumors. When the tumors are approximately 100 mm3 in size (˜7-10 days following implantation), the animals are randomized and separated into treatment and control groups. Each group contains 6-8 tumor-bearing mice, each of which is ear-tagged and followed individually throughout the experiment.
(§3) Mice are weighed and tumor measurements are taken by calipers three times weekly, starting on Day 1. These tumor measurements are converted to tumor volume by the well-known formula (L+W/4)3 4/3π. The experiment is terminated when the control tumors reach a size of approximately 1500 mm^3. In this model, the change in mean tumor volume for a compound treated group/the change in mean tumor volume of the control group (non-treated or vehicle treated)×100 (ΔT/ΔC) is subtracted from 100 to give the percent tumor growth inhibition (% TGI) for each test compound. In addition to tumor volumes, body weight of animals is monitored twice weekly for up to 3 weeks.

[2] = tested on: HCT116 tumor; assay: In vivo solid tumor disease model, HCT116; set-up: species or system mice; details: HCT116, 20 mg/kg orally daily, 13 days
[3] = tested on: MKN45 tumor; assay: In vivo solid tumor disease model, MKN45; set-up: species or system mice; details: Mus musculus, MKN-45, po, MKN45, 20 mg/kg orally daily, read-out: Tumor Growth Inhibition (%)
[4] = tested on: SKLMS40 tumor; assay: In vivo solid tumor disease model, SKLMS40; set-up: species or system mice; details: Mus musculus, po, SKLMS40, 20 mg/kg orally daily, read-out: Tumor Growth Inhibition (%)
Text: as §1, §2, §3

[5] = tested on: A549 tumor; assay: In vivo solid tumor disease model, A549; set-up: species or system mice; details: A549, 20 mg/kg orally daily, 12 days
[6] = tested on: MNNG HOS tumor; assay: In vivo solid tumor disease model, MNNG HOS; set-up: species or system mice; details: 20 mg/kg orally daily, 6 days
[7] = tested on: Panc-1 tumor; assay: In vivo solid tumor disease model, Panc-1; set-up: species or system mice; details: Panc-1, 20 mg/kg orally daily, 13 days
[8] = tested on: H1437 tumor; assay: In vivo solid tumor disease model, H1437; set-up: species or system mice; details: H1437, 15 mg/kg orally daily, 16 days
[9] = tested on: MDAMB231 tumor; assay: In vivo solid tumor disease model, MDAMB231; set-up: species or system mice; details: MDAMB231, 20 mg/kg orally daily, 13 days
[10] = tested on: SKLMS tumor; assay: In vivo solid tumor disease model, SKLMS; set-up: species or system mice; details: 20 mg/kg orally daily, 15 days
Text: as §1, §2
Mice are weighed and tumor measurements are taken by calipers three times weekly, starting on Day 1. These tumor measurements are converted to tumor volume by the well-known formula (L+W/4)3 4/3π. The experiment is terminated when the control tumors reach a size of approximately 1500 mm^3. […] In addition to tumor volumes, body weight of animals is monitored twice weekly for up to 3 weeks.

[11] = tested on: CNV progression; assay: In vivo choroidal neovascularization (CNV) model, laser-induced; details: Brown-Norway rats, intravitreal injection 30 and/or 100 nmol/eye on Day 1 and/or Day 3 and/or Day 7, CNV area on Day 10
Text: This test measures the capacity of compounds to inhibit CNV progression. CNV is the main cause of severe vision loss in patients suffering from age-related macular degeneration (AMD).
Male Brown-Norway rats (Japan Clea Co., Ltd.) were used in these studies.
Rats were anesthetized by intraperitoneal injection of pentobarbital, and the right pupil was dilated with 0.5% tropicamide and 0.5% phenylephrine hydrochloride. The right eye received 6 laser burns between retinal vessels using a slit lamp delivery system of Green laser Photocoagulator (Nidex Inc., Japan), and microscope slide glass with Heaton™ (AMO Inc) used as a contact lens. The laser power was 100 or 200 mW for 0.1 second and spot diameter was 100 μm. At the time of laser burn, bubble production was observed, which is an indication of rupture of Bruch's membrane which is important for CNV generation.
Rats were divided into the groups based on their body weight using SAS software (SAS institute Japan, R8.1) after laser irradiation (Day 0). After animals were anesthetized, and the right pupil dilated (as above mentioned), the right eye of the animal received the compound or vehicle by intravitreal injection (5 or 10 μL/eye) at doses of 30 and/or 100 nmol/eyeon Day 1 and/or Day 3 and/or Day 7. The compounds were dissolved or suspended in CBS, PBS, or other adequate vehicles before injection.
On Day 10, the animals were anesthetized with ether, and high molecular weight fluorescein isothiocyanate (FITC)-dextran (SIGMA, 2×10^6 MW) was injected via a tail vein (20 mg/rat). About 30 min after FITC-dextran injection, animals were euthanized by ether or carbon dioxide, and the eyes were removed and fixed with 10% formaline neutral buffer solution. After over 1 hour of fixation, RPE-choroid-sclera flat mounts were obtained by removing cornea, lens and retina from the eyeballs. The flat mounts were mounted in 50% glycerol on a microscope slide, and the portion burned by laser was photographed using a fluorescence microscope (Nikon Corporation, excitation filter:465-495 nm, absorption filter:515-555 nm). The CNV area was obtained by measurement of hyper-fluorescence area observed on the photograph using Scion image.
The average CNV area of 6 burns was used as an individual value of CNV area, and the average CNV area of compound treated group was compared with that of the vehicle-treated group. […]

**Q.** `CS(=O)(=O)CCNCc1ccc(-c2cc3nccc(Oc4ccc(NC(=O)C5(C(=O)Nc6ccccc6)CC5)cc4F)c3s2)cc1` [drawing 370] was tested. Which inhibition in vivo at 20 mg/kg ([1]; 240 h, 10 days) did it give?
**A.** 50 to 75%

**Q.** With `COCCNCc1ccc(-c2cc3nccc(Oc4ccc(NC(=O)Nc5cc(C(C)(C)C)on5)cc4F)c3s2)nc1` [drawing 379] as the compound, how does the “Tumor Growth Inhibition (%)” value [2] read?
**A.** C (tumor growth inhibition of ≧50% but <75%)

**Q.** With `COCCNCCn1cnc(-c2cc3nccc(Oc4ccc(NC(=S)NC(=O)Cc5ccc(F)cc5)cc4F)c3s2)c1` [drawing 366] as the compound, how does the inhibition in vivo at 20 mg/kg ([1]; 288 h, 12 days) read?
**A.** < 25%

**Q.** For `COCCNCc1ccc(-c2cc3nccc(Oc4ccc(NC(=O)C5(C(=O)Nc6ccccc6)CC5)cc4F)c3s2)nc1` [drawing 374], which inhibition in vivo at 20 mg/kg ([3]; 312 h, 13 days) is on record?
**A.** ≥ 75%

**Q.** What about the inhibition in vivo at 20 mg/kg ([1]; 288 h, 12 days) of the same compound?
**A.** ≥ 75%

**Q.** What about the inhibition in vivo at 20 mg/kg ([4]; 312 h, 13 days) of the same compound?
**A.** 50 to 75%

**Q.** And the “Tumor Growth Inhibition (%)” value [5]?
**A.** C (tumor growth inhibition of ≧50% but <75%)

**Q.** How did the inhibition in vivo at 20 mg/kg ([4]; 360 h, 15 days) turn out when `COCCNCc1ccc(-c2cc3nccc(Oc4ccc(NC(=O)Nc5cc(C)on5)c(OC)c4)c3s2)nc1` was run?
**A.** ≥ 75%

**Q.** How did the inhibition in vivo at 20 mg/kg ([1]; 240 h, 10 days) turn out when `COCCNCCn1cc(-c2cc3nccc(Oc4ccc(NC(=S)NC(=O)Cc5ccccc5)cc4F)c3s2)cn1` [drawing 367] was run?
**A.** 25 to 50%

**Q.** With `COCCNCc1ccc(-c2cc3nccc(Oc4ccc(NC(=O)C5(C(=O)Nc6ccccc6)CC5)cc4F)c3s2)o1` [drawing 368] as the compound, how does the inhibition in vivo at 20 mg/kg ([4]; 312 h, 13 days) read?
**A.** 50 to 75%

**Q.** `COCCNCc1cnc(-c2cc3nccc(Oc4ccc(NC(=S)NC(=O)Cc5ccccc5)cc4F)c3s2)n1C` [drawing 371] was tested. Which inhibition in vivo at 20 mg/kg ([3]; 312 h, 13 days) did it give?
**A.** 50 to 75%

**Q.** And the inhibition in vivo at 20 mg/kg ([4]; 312 h, 13 days)?
**A.** < 25%

**Q.** And the “Tumor Growth Inhibition (%)” value [5]?
**A.** B (tumor growth inhibition of ≧25% but <50%)

**Q.** What does the source list for `COCCNCc1cccc(-c2cc3nccc(Oc4ccc(NC(=S)NC(=O)Cc5ccc(F)cc5)cc4F)c3s2)c1` [drawing 360]?
**A.** Tumor Growth Inhibition (%) [6]: A (tumor growth inhibition of less than 25%); inhibition in vivo at 20 mg/kg ([3]; 168 h, 7 days): 50 to 75%

**Q.** For `COCCNCc1ccc(-c2cc3nccc(Oc4ccc(NC(=O)NNC(=O)c5ccccc5)cc4F)c3s2)nc1`, which “Tumor Growth Inhibition (%)” value [7] is on record?
**A.** A (tumor growth inhibition of less than 25%)

**Q.** For `COCCNCc1ccc(-c2cc3nccc(Oc4ccc(NC(=S)NC(=O)Cc5ccc(F)cc5)c(OC)c4)c3s2)nc1`, which inhibition in vivo at 20 mg/kg ([4]; 360 h, 15 days) is on record?
**A.** 25 to 50%

**Q.** Which inhibition in vivo at 20 mg/kg ([4]; 360 h, 15 days) does the source give for `COCCNCc1ccc(-c2cc3nccc(Oc4ccc(NC(=O)C5(C(=O)Nc6ccc(F)cc6)CC5)c(OC)c4)c3s2)nc1` here?
**A.** 25 to 50%

**Q.** For `COCCNCc1ccc(-c2cc3nccc(Oc4ccc(NC(=O)CC(=O)N(C)c5ccccc5)cc4F)c3s2)nc1` [drawing 373], which inhibition in vivo at 20 mg/kg ([3]; 312 h, 13 days) is on record?
**A.** 50 to 75%

**Q.** What about the inhibition in vivo at 20 mg/kg ([1]; 288 h, 12 days) of the same compound?
**A.** 25 to 50%

**Q.** And the inhibition in vivo at 20 mg/kg ([4]; 312 h, 13 days)?
**A.** < 25%

**Q.** What about the “Tumor Growth Inhibition (%)” value [5] of the same compound?
**A.** C (tumor growth inhibition of ≧50% but <75%)

**Q.** Which inhibition in vivo at 20 mg/kg ([1]; 312 h, 13 days) does the source give for `COCCNCc1cccc(-c2cc3nccc(Oc4ccc(NC(=O)C5(C(=O)Nc6ccc(F)cc6)CC5)cc4F)c3s2)n1` here?
**A.** ≥ 75%

**Q.** For `COCCNCc1ccc(-c2cc3nccc(Oc4ccc(NC(=S)NC(=O)Cc5ccc(F)cc5)c(F)c4)c3s2)nc1`, which “Tumor Growth Inhibition (%)” value [8] is on record?
**A.** A (tumor growth inhibition of less than 25%)

**Q.** `COCCNCc1ccc(-c2cc3nccc(Oc4ccc(NC(=O)C5(C(=O)Nc6ccc(F)cc6)CC5)cc4F)c3s2)o1` was tested. Which “Tumor Growth Inhibition (%)” value [7] did it give?
**A.** D (tumor growth inhibition of ≧75%)

**Q.** With `COCCNCc1ccc(-c2cc3nccc(Oc4ccc(NC(=O)C5(C(=O)Nc6ccc(F)cc6)CC5)cc4F)c3s2)nc1` [drawing 376] as the compound, how does the inhibition in vivo at 20 mg/kg ([1]; 288 h, 12 days) read?
**A.** ≥ 75%

**Q.** What about the inhibition in vivo at 20 mg/kg ([4]; 312 h, 13 days) of the same compound?
**A.** ≥ 75%

**Q.** And the “Tumor Growth Inhibition (%)” value [9]?
**A.** D D D (tumor growth inhibition of ≧75%)

**Q.** What does the source list for `COCCNCc1ccc(-c2cc3nccc(Oc4ccc(NC(=O)Nc5coc(C)c5)cc4F)c3s2)nc1`?
**A.** inhibition in vivo at 20 mg/kg ([1]; 312 h, 13 days): ≥ 75%; Tumor Growth Inhibition (%) [10]: D D D (tumor growth inhibition of ≧75%); Tumor Growth Inhibition (%) [7]: D D D (tumor growth inhibition of ≧75%)

**Q.** Which inhibition in vivo at 20 mg/kg ([3]; 312 h, 13 days) does the source give for `COCCNCc1ccc(-c2cc3nccc(Oc4ccc(NC(=O)CC(=O)N(C)c5ccc(F)cc5)cc4F)c3s2)nc1` [drawing 375] here?
**A.** 25 to 50%

**Q.** What about the “Tumor Growth Inhibition (%)” value [5] of the same compound?
**A.** A (tumor growth inhibition of less than 25%)

**Q.** With `COCCNCc1cnc(-c2cc3nccc(Oc4ccc(NC(=O)CC(=O)Nc5ccccc5)cc4F)c3s2)n1C` [13(49), N^1-(3-Fluoro-4-(2-(5-((2-methoxyethylamino)methyl)-1-methyl-1H-imidazol-2-yl)thieno[3,2-b]pyridin-7-yloxy)phenyl)-N^3-phenylmalonamide] as the compound, how does the “% Inhibition of CNV Progression” value [11] read?
**A.** A (greater than or equal to 30% inhibition)

**Q.** How did the “% Inhibition of CNV Progression” value [11] turn out when `COCCNCc1ccc(-c2cc3nccc(Oc4ccc(NC(=O)NC5CC5)cc4F)c3s2)nc1` [170(277), 1-Cyclopropyl-3-(3-fluoro-4-(2-(5-((2-methoxyethylamino)methyl)pyridin-2-yl)thieno[3,2-b]pyridin-7-yloxy)phenyl)urea] was run?
**A.** A (greater than or equal to 30% inhibition)

**Q.** For `COCCNCc1ccc(-c2cc3nccc(Oc4ccc(NC(=O)Nc5cc(C(F)(F)F)ccc5F)cc4F)c3s2)nc1` [146(253), 1-(3-fluoro-4-(2-(5-((2-methoxyethylamino)methyl)pyridin-2-yl)thieno[3,2-b]pyridin-7-yloxy)phenyl)-3-(2-fluoro-5-(trifluoromethyl)phenyl)urea], which “% Inhibition of CNV Progression” value [11] is on record?
**A.** A (greater than or equal to 30% inhibition)
